Data taken from US6500817B1, “Thiazolyl urea derivatives and their utilization as antiviral agents” (Bayer Aktiengesellschaft, priority 1999, dated 2002).

melting point [°C] | SMILES
153 to 154 | CCOC(=O)N1CC2CCN(c3ccc(NC(=O)N(C)c4nc(S(=O)(=O)NC)c(C)s4)cc3)C2C1 (stereo not drawn)
184 | CCOc1ccc(NC(=O)N(CCNC(C)=O)c2nc(C)c(S(=O)(=O)N(C)C)s2)cc1
219 | CC(=O)Nc1cccc(Oc2ccc(NC(=O)N(C)c3nc(Cl)c(S(=O)(=O)N(C)C)s3)cc2)c1
150 | CCOc1ccc(NC(=O)N(CCCN)c2nc(C)c(S(=O)(=O)NC)s2)cc1.Cl
141 | CCOc1ccc(NC(=O)N(CCC2CCCN2C)c2nc(C)c(S(=O)(=O)NC)s2)cc1 (stereo not drawn)
147 | CCOc1ccc(NC(=O)N(CCCO)c2nc(C)c(S(=O)(=O)N(C)C)s2)cc1
185 | CCOc1ccc(NC(=O)N(CCCN(C)C)c2nc(C)c(S(=O)(=O)NC)s2)cc1
208 to 209 | CNS(=O)(=O)c1sc(N(C)C(=O)Nc2ccc(N3CC=CC3)cc2)nc1C
130 | CCOc1ccc(NC(=O)N(CCCNC(=O)OC(C)(C)C)c2nc(C)c(S(=O)(=O)N(C)C)s2)cc1
225 | Cc1nc(N(C)C(=O)Nc2ccc(N3CCOCC3)cc2)sc1S(N)(=O)=O
217 | CCc1nc(N(C)C(=O)Nc2ccc(N3CCCC3)cc2)sc1S(=O)(=O)NC
161 | CCCOc1ccc(NC(=O)N(C)c2nc(C)c(S(=O)(=O)NC)s2)cc1
147 | CCCOc1ccc(NC(=O)N(C)c2nc(C)c(S(=O)(=O)N(C)C)s2)cc1
158 | Cc1nc(N(C)C(=O)Nc2ccc(OCC(C)(C)C)cc2)sc1S(=O)(=O)N(C)C
145 | CCCN(C(=O)Nc1ccc(OCC)cc1)c1nc(C)c(S(=O)(=O)NCc2ccccc2)s1
196 | CN(C(=O)Nc1ccc(N2CCOCC2)c(F)c1)c1nc(Cl)c(S(=O)(=O)N(C)C)s1
178 | CNS(=O)(=O)c1sc(N(CC2CCCO2)C(=O)Nc2ccc(-c3ccccc3)cc2)nc1C (stereo not drawn)
220 | COC(=O)c1ccc(NC(=O)N(C)C2=NC(Cl)C(S(=O)(=O)N(C)C)S2)cc1 (stereo not drawn)
208 | CCOc1ccc(NC(=O)N(CCN(C)C)c2nc(CC)c(S(=O)(=O)NC)s2)cc1
198 | CCOc1ccc(NC(=O)Nc2nc(C)c(S(=O)(=O)N3CCCC3)s2)cc1
178 | CCOc1ccc(NC(=O)N(Cc2ccccc2)c2nc(C)c(S(=O)(=O)NC3CC3)s2)cc1

melting point [°C] | SMILES
156 | COCCN(C)S(=O)(=O)c1sc(N(C)C(=O)Nc2ccc(N3CCOCC3)cc2)nc1C
164 | CCOc1ccc(NC(=O)N(CCOC)c2nc(C)c(S(=O)(=O)NC3CC3)s2)cc1
241 | CN(C(=O)Nc1ccc(N2CCOCC2)cc1)c1nc(Cl)c(S(=O)(=O)NC2CC2)s1
123 | Cc1nc(N(CCN(C)C)C(=O)Nc2ccc(N3CCOCC3)cc2)sc1S(N)(=O)=O
183 | CCOc1ccc(NC(=O)N(C)c2nc(Cl)c(S(=O)(=O)NC3CC3)s2)cc1
127 | CN(C(=O)Nc1ccc(Oc2ccccc2)cc1)c1nc(Cl)c(S(=O)(=O)N(C)C)s1
206 | CNS(=O)(=O)c1sc(N(Cc2ccccn2)C(=O)Nc2ccc(N3CCOCC3)cc2)nc1C
157 | COCCNS(=O)(=O)c1sc(N(C)C(=O)Nc2ccc(-c3ccccc3)cc2)nc1C
172 | Cc1nc(N(C)C(=O)Nc2ccc(N3CCOCC3)cc2)sc1S(=O)(=O)N(C)CCn1ccnn1
164 | CCOc1ccc(NC(=O)N(CCNC(=O)OC(C)(C)C)c2nc(C)c(S(=O)(=O)N(C)C)s2)cc1
173 | CCOc1ccc(NC(=O)N(CC(C)C)c2nc(C)c(S(=O)(=O)N(C)C)s2)cc1
161 | CCOc1ccc(NC(=O)N(CCCO)c2nc(C)c(S(=O)(=O)NC)s2)cc1
183 | CCOc1ccc(NC(=O)N(C)c2nc(Cl)c(S(=O)(=O)NC)s2)cc1
185 | Cc1nc(N(C)C(=O)Nc2ccc(N3CCCCC3)cc2)sc1S(=O)(=O)N(C)C
162 to 163 | CC(=O)Nc1cc(N2CCCC2)ccc1NC(=O)N(C)c1nc(C)c(S(=O)(=O)N(C)C)s1 [169]
185 | Cc1nc(N(C)C(=O)Nc2ccc(N3CC=CC3)cc2)sc1S(=O)(=O)N(C)C
132 | CCCN(C(=O)Nc1ccc(OCC)cc1)c1nc(Cl)c(S(=O)(=O)N(C)C)s1
164 | CCOc1ccc(NC(=O)N(CCCCO)c2nc(C)c(S(=O)(=O)NC)s2)cc1
162 | CCOc1ccc(NC(=O)N(C)c2nc(C)c(S(=O)(=O)NCc3ccco3)s2)cc1
163 | CCOc1ccc(NC(=O)N(C)c2nc(C)c(S(=O)(=O)N(C)CC)s2)cc1
193 | COCCN(C(=O)Nc1ccc(-c2ccccc2)cc1)c1nc(C)c(S(N)(=O)=O)s1 [195]

melting point [°C] | SMILES
188 | CCOc1ccc(NC(=O)N(CCn2ccnn2)c2nc(C)c(S(=O)(=O)NC)s2)cc1
208 | CNS(=O)(=O)c1sc(N(Cc2ccncc2)C(=O)Nc2ccc(N3CCCC3)cc2)nc1C
158 | CCOc1ccc(NC(=O)N(CCOc2ccccc2)c2nc(C)c(S(=O)(=O)NC)s2)cc1
188 | C=C(Nc1ccc(N2CCOCC2)cc1)Nc1nc(C)c(S(=O)(=O)N(C)C)s1
168 | CCOc1ccc(NC(=O)N(C)c2nc(C)c(S(=O)(=O)NCC3CCCO3)s2)cc1 (stereo not drawn)
196 | Cc1nc(N(C)C(=O)Nc2ccc(N3CCSCC3)cc2)sc1S(=O)(=O)N(C)C
201 | COCCN(C(=O)Nc1ccc(N2CCOCC2)cc1)c1nc(C)c(S(N)(=O)=O)s1
198 | CCOc1ccc(NC(=O)N(Cc2ccncc2)c2nc(C)c(S(=O)(=O)NC)s2)cc1
193 | CCOc1ccc(NC(=O)N(Cc2cccnc2)c2nc(C)c(S(N)(=O)=O)s2)cc1
188 | CCOc1ccc(NC(=O)N(CCCN2CCCC2=O)c2nc(C)c(S(=O)(=O)NC)s2)cc1
150 | CCOc1ccc(NC(=O)N(CCCNC(=O)OC(C)(C)C)c2nc(C)c(S(=O)(=O)NCC(F)(F)F)s2)cc1 [136]
180 | CCOc1ccc(NC(=O)N(Cc2cccnc2)c2nc(C)c(S(=O)(=O)N(C)C)s2)cc1
176 | Cc1nc(N(C)C(=O)Nc2ccc(-c3ccccc3)cc2)sc1S(=O)(=O)NCC1CC1
148 | CNS(=O)(=O)c1sc(N(C)C(=O)Nc2ccc(-c3ccccc3C)cc2C)nc1C
> 225 | Cc1nc(N(C)C(=O)Nc2ccc(C3=NOCCO3)cc2)sc1S(=O)(=O)NC1CC1
186 to 187 | Cc1nc(N(C)C(=O)Nc2ccc(N3CC=CC3)cc2)sc1S(=O)(=O)NC1CC1
205 | CNS(=O)(=O)c1sc(N(Cn2ccnc2)C(=O)Nc2ccc(-c3ccccc3)cc2)nc1C
188 | CNS(=O)(=O)c1sc(N(CCCN2CCN(C)CC2)C(=O)Nc2ccc(-c3ccccc3)cc2)nc1C
196 | CNS(=O)(=O)c1sc(N(CCN(C)C)C(=O)Nc2ccc(N3CCOCC3)cc2)nc1C
216 | Cc1nc(N(C)C(=O)Nc2ccc(N3CCOCC3)cc2)sc1S(=O)(=O)NCc1ccccc1
154 | CCOc1ccc(NC(=O)N(C)c2nc(C)c(S(=O)(=O)NCc3ccccn3)s2)cc1
